Source: paper PMC5218480 (PLoS ONE, 2017)

System: MV-4-11 cells
Experiment: Gene expression microarray analysis (Affymetrix PrimeView) and GSEA
Assay type: cell-based, human
Parameters: RFU PODN (11730768_x_at) / Fold change /veh PODN (11730768_x_at) / RFU LINC00158 (11744669_a_at) / Fold change /veh LINC00158 (11744669_a_at) / RFU DUSP10 (11751237_a_at) / Fold change /veh DUSP10 (11751237_a_at) / RFU ID3 (11757404_x_at) / Fold change /veh ID3 (11757404_x_at) / RFU PLEKHG5 (11737974_s_at) / Fold change /veh PLEKHG5 (11737974_s_at) / RFU LRRC4B (11730491_at) / Fold change /veh LRRC4B (11730491_at) / RFU GIMAP4 (11747438_a_at) / Fold change /veh GIMAP4 (11747438_a_at) / RFU KRT8 (11758183_x_at) / Fold change /veh KRT8 (11758183_x_at) / RFU CNN1 (11734310_a_at) / Fold change /veh CNN1 (11734310_a_at) / RFU VPS37D (11726825_at) / Fold change /veh VPS37D (11726825_at) / RFU C10orf10 (11716522_x_at) / Fold change /veh C10orf10 (11716522_x_at) / RFU KIR2DL2 /// KIR2DL4 /// KIR2DL5A /// KIR2DL5B /// KIR2DS1 /// KIR2DS2 /// KIR2DS3 /// KIR2DS4 /// KIR3DL3 /// KIR3DL3 /// KIR3DS1 (11738374_at) / Fold change /veh KIR2DL2 /// KIR2DL4 /// KIR2DL5A /// KIR2DL5B /// KIR2DS1 /// KIR2DS2 /// KIR2DS3 /// KIR2DS4 /// KIR3DL3 /// KIR3DL3 /// KIR3DS1 (11738374_at) / RFU C1QL1 (11718748_at) / Fold change /veh C1QL1 (11718748_at) / RFU TMPRSS4 (11747572_a_at) / Fold change /veh TMPRSS4 (11747572_a_at) / RFU HAMP (11756126_x_at) / Fold change /veh HAMP (11756126_x_at) / RFU RNFT2 (11725882_a_at) / Fold change /veh RNFT2 (11725882_a_at) / RFU NR4A2 (11747474_a_at) / Fold change /veh NR4A2 (11747474_a_at) / RFU ABCC12 (11746883_a_at) / Fold change /veh ABCC12 (11746883_a_at) / RFU TMEM136 (11760407_x_at) / Fold change /veh TMEM136 (11760407_x_at) / RFU CLDN22 /// WWC2 (11732394_at) / Fold change /veh CLDN22 /// WWC2 (11732394_at) / RFU HLA-DPB1 (11760878_x_at) / Fold change /veh HLA-DPB1 (11760878_x_at) / RFU SPINT1 (11716480_a_at) / Fold change /veh SPINT1 (11716480_a_at) / RFU GAP43 (11754022_s_at) / Fold change /veh GAP43 (11754022_s_at) / RFU A4GNT (11735810_at) / Fold change /veh A4GNT (11735810_at) / RFU PRB3 (11715151_x_at) / Fold change /veh PRB3 (11715151_x_at) / RFU TUBB4B (11761932_at) / Fold change /veh TUBB4B (11761932_at) / RFU CAPN14 (11732068_a_at) / Fold change /veh CAPN14 (11732068_a_at) / RFU TMCC2 (11721928_a_at) / Fold change /veh TMCC2 (11721928_a_at) / RFU IRGQ (11745062_a_at) / Fold change /veh IRGQ (11745062_a_at) / RFU FAM174B (11720279_a_at) / Fold change /veh FAM174B (11720279_a_at) / RFU TMPRSS4 (11748680_a_at) / Fold change /veh TMPRSS4 (11748680_a_at) / RFU FAM212B (11763350_a_at) / Fold change /veh FAM212B (11763350_a_at) / RFU PLEKHG5 (11743358_a_at) / Fold change /veh PLEKHG5 (11743358_a_at) / RFU ZSCAN30 (11745921_a_at) / Fold change /veh ZSCAN30 (11745921_a_at) / RFU CMKLR1 (11741424_a_at) / Fold change /veh CMKLR1 (11741424_a_at) / RFU LOC101060620 /// MAPK8IP1 (11723275_at) / Fold change /veh LOC101060620 /// MAPK8IP1 (11723275_at) / RFU SPTSSB (11747773_x_at) / Fold change /veh SPTSSB (11747773_x_at) / RFU PRSS12 (11739890_at) / Fold change /veh PRSS12 (11739890_at) / RFU BIN1 (11741810_x_at) / Fold change /veh BIN1 (11741810_x_at) / RFU WNT11 (11732464_a_at) / Fold change /veh WNT11 (11732464_a_at) / RFU C10orf10 (11716521_a_at) / Fold change /veh C10orf10 (11716521_a_at) / RFU C5orf56 (11738089_at) / Fold change /veh C5orf56 (11738089_at) / RFU CYB561 (11721691_x_at) / Fold change /veh CYB561 (11721691_x_at) / RFU ANKRD19P (11752326_a_at) / Fold change /veh ANKRD19P (11752326_a_at) / RFU OR2T12 /// OR2T33 /// OR2T8 (11738714_s_at) / Fold change /veh OR2T12 /// OR2T33 /// OR2T8 (11738714_s_at) / RFU VCAN (11748164_a_at) / Fold change /veh VCAN (11748164_a_at) / RFU JSRP1 (11732532_at) / Fold change /veh JSRP1 (11732532_at) / RFU KRTAP10-11 (11738290_x_at) / Fold change /veh KRTAP10-11 (11738290_x_at) / RFU MYO3A (11730013_a_at) / Fold change /veh MYO3A (11730013_a_at) / RFU EBF3 (11725865_a_at) / Fold change /veh EBF3 (11725865_a_at) / RFU CAMK2N1 (11719241_x_at) / Fold change /veh CAMK2N1 (11719241_x_at) / RFU C5orf56 (11738088_a_at) / Fold change /veh C5orf56 (11738088_a_at) / RFU OLFML3 (11715873_a_at) / Fold change /veh OLFML3 (11715873_a_at) / RFU LOC100653217 /// NTM (11731650_a_at) / Fold change /veh LOC100653217 /// NTM (11731650_a_at) / RFU MAPK11 (11762145_a_at) / Fold change /veh MAPK11 (11762145_a_at) / RFU FIZ1 (11724087_x_at) / Fold change /veh FIZ1 (11724087_x_at) / RFU OASL (11726364_x_at) / Fold change /veh OASL (11726364_x_at) / RFU SOX15 (11748057_x_at) / Fold change /veh SOX15 (11748057_x_at) / RFU CD79A (11719716_a_at) / Fold change /veh CD79A (11719716_a_at) / RFU HIST1H1D (11736915_at) / Fold change /veh HIST1H1D (11736915_at) / RFU CASKIN2 (11723855_a_at) / Fold change /veh CASKIN2 (11723855_a_at) / RFU LOC730098 (11760151_x_at) / Fold change /veh LOC730098 (11760151_x_at) / RFU OR4N2 (11742367_at) / Fold change /veh OR4N2 (11742367_at) / RFU PRRT2 (11749266_a_at) / Fold change /veh PRRT2 (11749266_a_at) / RFU SNX32 (11753110_a_at) / Fold change /veh SNX32 (11753110_a_at) / RFU CDHR5 (11726645_a_at) / Fold change /veh CDHR5 (11726645_a_at) / RFU RCAN1 (11760418_a_at) / Fold change /veh RCAN1 (11760418_a_at) / RFU FAM167A (11723789_a_at) / Fold change /veh FAM167A (11723789_a_at) / RFU FAM26E (11764081_at) / Fold change /veh FAM26E (11764081_at) / RFU ISYNA1 (11749810_s_at) / Fold change /veh ISYNA1 (11749810_s_at) / RFU ACY1 (11761880_at) / Fold change /veh ACY1 (11761880_at) / RFU 11764098_at / Fold change /veh 11764098_at / RFU SAMD14 (11745864_x_at) / Fold change /veh SAMD14 (11745864_x_at) / RFU NPB (11741838_a_at) / Fold change /veh NPB (11741838_a_at) / RFU TMPRSS6 (11731388_a_at) / Fold change /veh TMPRSS6 (11731388_a_at) / RFU KRTAP10-2 (11738614_at) / Fold change /veh KRTAP10-2 (11738614_at) / RFU ARHGAP8 /// PRR5-ARHGAP8 (11727945_x_at) / Fold change /veh ARHGAP8 /// PRR5-ARHGAP8 (11727945_x_at) / RFU KRTAP5-7 /// NADSYN1 (11734609_at) / Fold change /veh KRTAP5-7 /// NADSYN1 (11734609_at) / RFU RASL12 (11751679_a_at) / Fold change /veh RASL12 (11751679_a_at) / RFU CDKN2B (11736163_a_at) / Fold change /veh CDKN2B (11736163_a_at) / RFU PRF1 (11729649_at) / Fold change /veh PRF1 (11729649_at) / RFU, ZNF638 /// ZNF638-IT1 / Fold change vs veh, ZNF638 /// ZNF638-IT1 / RFU, PANK3 / Fold change vs veh, PANK3 / RFU, SH3YL1 / Fold change vs veh, SH3YL1 / RFU, ZEB2 / Fold change vs veh, ZEB2 / RFU, NRIP1 / Fold change vs veh, NRIP1 / RFU, PTTG1IP / Fold change vs veh, PTTG1IP / RFU, CAPN2 / Fold change vs veh, CAPN2 / RFU, MED14 / Fold change vs veh, MED14 / RFU, SNORA58 / Fold change vs veh, SNORA58 / RFU, C1orf63 / Fold change vs veh, C1orf63 / RFU, LRRFIP1 / Fold change vs veh, LRRFIP1 / RFU, NDUFAF7 / Fold change vs veh, NDUFAF7 / RFU, SLC12A2 / Fold change vs veh, SLC12A2 / RFU, IBTK / Fold change vs veh, IBTK / RFU, ESF1 / Fold change vs veh, ESF1 / Fold change vs veh, TMEM50B / RFU, TAOK1 / Fold change vs veh, TAOK1 / RFU, ACBD3 / Fold change vs veh, ACBD3 / RFU, TMA16 / Fold change vs veh, TMA16 / RFU, RWDD3 / Fold change vs veh, RWDD3 / RFU, BCAT1 / Fold change vs veh, BCAT1 / RFU, EDEM3 / Fold change vs veh, EDEM3 / RFU, TMEM33 / Fold change vs veh, TMEM33 / RFU, WDR75 / Fold change vs veh, WDR75 / RFU, AHCTF1 / Fold change vs veh, AHCTF1 / RFU, TFRC / Fold change vs veh, TFRC / RFU, ZDHHC17 / Fold change vs veh, ZDHHC17 / RFU, NOM1 / Fold change vs veh, NOM1 / RFU, ARL8B / Fold change vs veh, ARL8B / RFU, ZBTB11 / Fold change vs veh, ZBTB11 / RFU, TAMM41 / Fold change vs veh, TAMM41 / RFU, KIAA1704 /// LOC100996395 / Fold change vs veh, KIAA1704 /// LOC100996395 / RFU, ING1 / Fold change vs veh, ING1 / RFU, TRMT61B / Fold change vs veh, TRMT61B / RFU, FUBP3 / Fold change vs veh, FUBP3 / RFU, TP53 / Fold change vs veh, TP53 / RFU, TNKS2 / Fold change vs veh, TNKS2 / RFU, ZFP14 / Fold change vs veh, ZFP14 / RFU, ACTR2 / Fold change vs veh, ACTR2 / RFU, PPP3R1 / Fold change vs veh, PPP3R1 / RFU, PIK3R1 / Fold change vs veh, PIK3R1 / RFU, HNRNPA1 / Fold change vs veh, HNRNPA1 / RFU, RNF170 / Fold change vs veh, RNF170 / RFU, ZNF28 / Fold change vs veh, ZNF28 / RFU, RNGTT / Fold change vs veh, RNGTT / RFU, OGT / Fold change vs veh, OGT / RFU, BRD1 / Fold change vs veh, BRD1 / RFU, MARS / Fold change vs veh, MARS / RFU, ZNF655 / Fold change vs veh, ZNF655 / RFU, FAHD1 / Fold change vs veh, FAHD1 / RFU, BDP1 / Fold change vs veh, BDP1 / RFU, LRRCC1 / Fold change vs veh, LRRCC1 / RFU, ARID1A / Fold change vs veh, ARID1A / RFU, ZNF146 / Fold change vs veh, ZNF146 / RFU, ZNF330 / Fold change vs veh, ZNF330 / RFU, GPN3 / Fold change vs veh, GPN3 / RFU, C9orf123 / Fold change vs veh, C9orf123 / RFU, N4BP2L2 / Fold change vs veh, N4BP2L2 / RFU, ARFIP1 / Fold change vs veh, ARFIP1 / RFU, FAM179B / Fold change vs veh, FAM179B / RFU, BCL10 / Fold change vs veh, BCL10 / RFU, UHRF1BP1L / Fold change vs veh, UHRF1BP1L / RFU, BET1 / Fold change vs veh, BET1 / RFU, CNOT2 / Fold change vs veh, CNOT2 / RFU, ZNF268 / Fold change vs veh, ZNF268 / Fold change vs veh, ZNF507 / RFU, DGCR2 / Fold change vs veh, DGCR2 / RFU, WDSUB1 / Fold change vs veh, WDSUB1 / Fold change vs veh, HSP90B1 /// MIR3652 / RFU, ADSS / Fold change vs veh, ADSS / RFU, GK / Fold change vs veh, GK / RFU, ZNF148 / Fold change vs veh, ZNF148 / RFU, TAF9 / Fold change vs veh, TAF9 / RFU, SLC1A5 / Fold change vs veh, SLC1A5 / RFU, SLMO2 / Fold change vs veh, SLMO2 / RFU, ABCC4 / Fold change vs veh, ABCC4 / RFU, LOC101060439 /// RAP1B / Fold change vs veh, LOC101060439 /// RAP1B / RFU, RFX7 / Fold change vs veh, RFX7 / RFU, GTPBP10 / Fold change vs veh, GTPBP10 / RFU, CNEP1R1 / Fold change vs veh, CNEP1R1 / RFU, BIVM-ERCC5 /// ERCC5 / Fold change vs veh, BIVM-ERCC5 /// ERCC5 / RFU, ILF3 / Fold change vs veh, ILF3 / RFU 11762660_at / Fold change /veh 11762660_at / RFU VCAN (11757783_s_at) / Fold change /veh VCAN (11757783_s_at) / RFU DDX43 (11728927_at) / Fold change /veh DDX43 (11728927_at) / RFU KRT8 (11758188_x_at) / Fold change /veh KRT8 (11758188_x_at) / RFU NKD1 (11759106_at) / Fold change /veh NKD1 (11759106_at) / RFU SRD5A1 (11742802_a_at) / Fold change /veh SRD5A1 (11742802_a_at) / RFU TPSAB1 /// TPSB2 (11721975_s_at) / Fold change /veh TPSAB1 /// TPSB2 (11721975_s_at) / RFU GSTM3 (11746129_a_at) / Fold change /veh GSTM3 (11746129_a_at) / RFU IL23R (11737362_x_at) / Fold change /veh IL23R (11737362_x_at) / RFU TMEM51 (11727254_a_at) / Fold change /veh TMEM51 (11727254_a_at) / RFU PIWIL2 (11732686_x_at) / Fold change /veh PIWIL2 (11732686_x_at) / RFU ORM1 (11744905_x_at) / Fold change /veh ORM1 (11744905_x_at) / RFU CCDC152 (11743942_at) / Fold change /veh CCDC152 (11743942_at) / RFU ECM1 (11717891_a_at) / Fold change /veh ECM1 (11717891_a_at) / RFU IL23R (11748794_a_at) / Fold change /veh IL23R (11748794_a_at) / RFU TNFAIP8L3 (11732012_x_at) / Fold change /veh TNFAIP8L3 (11732012_x_at) / RFU MBOAT4 (11741988_at) / Fold change /veh MBOAT4 (11741988_at) / RFU 11764193_at / Fold change /veh 11764193_at / RFU TMEM53 (11763286_at) / Fold change /veh TMEM53 (11763286_at) / RFU MAGEB2 (11727129_at) / Fold change /veh MAGEB2 (11727129_at) / RFU TMEM200A (11744735_a_at) / Fold change /veh TMEM200A (11744735_a_at) / RFU CCDC152 (11751479_a_at) / Fold change /veh CCDC152 (11751479_a_at) / RFU FAM211A (11726209_a_at) / Fold change /veh FAM211A (11726209_a_at) / RFU RGS16 (11746705_a_at) / Fold change /veh RGS16 (11746705_a_at) / RFU VCAN (11755009_s_at) / Fold change /veh VCAN (11755009_s_at) / RFU RHOB (11743442_s_at) / Fold change /veh RHOB (11743442_s_at) / RFU RGS16 (11720943_a_at) / Fold change /veh RGS16 (11720943_a_at) / RFU RGS16 (11720944_at) / Fold change /veh RGS16 (11720944_at) / RFU, VPS4B / Fold change vs veh, VPS4B / RFU, CREB1 / Fold change vs veh, CREB1 / RFU, DNAJC13 / Fold change vs veh, DNAJC13 / RFU, GNAQ / Fold change vs veh, GNAQ / RFU, CDK5R1 / Fold change vs veh, CDK5R1 / RFU, ZRANB3 / Fold change vs veh, ZRANB3 / RFU, CUL4A / Fold change vs veh, CUL4A / RFU, CCNY / Fold change vs veh, CCNY / RFU, UFL1 / Fold change vs veh, UFL1 / RFU, COG3 / Fold change vs veh, COG3 / RFU, DIAPH2 / Fold change vs veh, DIAPH2 / RFU, SKA2 / Fold change vs veh, SKA2 / RFU, AFF3 / Fold change vs veh, AFF3 / RFU, LMF1 / Fold change vs veh, LMF1 / RFU, IPO11 / Fold change vs veh, IPO11 / RFU, DFFB / Fold change vs veh, DFFB / RFU, FOXP1 / Fold change vs veh, FOXP1 / RFU, CARD8 / Fold change vs veh, CARD8 / RFU, STRN3 / Fold change vs veh, STRN3 / RFU, ADK / Fold change vs veh, ADK / RFU, RASSF2 / Fold change vs veh, RASSF2 / RFU, WIPF1 / Fold change vs veh, WIPF1 / RFU, LARP1B / Fold change vs veh, LARP1B / RFU, RASA1 / Fold change vs veh, RASA1 / RFU, RB1 / Fold change vs veh, RB1 / RFU, PPFIA1 / Fold change vs veh, PPFIA1 / RFU, MAT2A / Fold change vs veh, MAT2A / RFU, CCT5 / Fold change vs veh, CCT5 / RFU, WDR92 / Fold change vs veh, WDR92 / RFU, CUX1 / Fold change vs veh, CUX1 / RFU, TTC7A / Fold change vs veh, TTC7A / RFU, TMEM135 / Fold change vs veh, TMEM135 / RFU, DEPTOR / Fold change vs veh, DEPTOR / RFU, CPM / Fold change vs veh, CPM / RFU, DNAJB6 / Fold change vs veh, DNAJB6 / RFU, CACNA2D3 / Fold change vs veh, CACNA2D3 / RFU, DTX4 / Fold change vs veh, DTX4 / RFU, TFCP2 / Fold change vs veh, TFCP2 / RFU, GMCL1 /// GMCL1P1 / Fold change vs veh, GMCL1 /// GMCL1P1 / RFU, AEBP2 / Fold change vs veh, AEBP2 / RFU, SNHG1 /// SNORD22 /// SNORD25 /// SNORD26 /// SNORD27 /// SNORD28 /// SNORD29 /// SNORD31 / Fold change vs veh, SNHG1 /// SNORD22 /// SNORD25 /// SNORD26 /// SNORD27 /// SNORD28 /// SNORD29 /// SNORD31 / Fold change (Aza/veh), C12orf56 (ProbeSet 11735607_a_at) / Fold change (ACY-1035/veh), C12orf56 (ProbeSet 11735607_a_at) / Fold change (Aza/veh), FGFR1OP (ProbeSet 11751329_s_at) / Fold change (ACY-1035/veh), FGFR1OP (ProbeSet 11751329_s_at) / Fold change (Aza/veh), VPS36 (ProbeSet 11739960_a_at) / Fold change (ACY-1035/veh), VPS36 (ProbeSet 11739960_a_at) / RFU SYPL1 (11715823_x_at) / Fold change /veh SYPL1 (11715823_x_at) / RFU IGFBP7 (11715501_s_at) / Fold change /veh IGFBP7 (11715501_s_at) / RFU REEP3 (11722064_at) / Fold change /veh REEP3 (11722064_at) / RFU IGLL1 (11728026_x_at) / Fold change /veh IGLL1 (11728026_x_at): dose or concentration left out as unconfirmed
Conditions: ProbeSet 11721969_s_at; LIST B

Nc1ncn([C@@H]2O[C@H](CO)[C@@H](O)[C@H]2O)c(=O)n1 [azacitidine]
RFU, BDP1: 496.27 RFU
